For 31 compounds, MIC results are on record in ChEMBL document CHEMBL4513160, “CO-ADD screening of MMV (CH) - Small Polar Library”.

In brackets after ≈: the same amount, converted by molar mass. Some results are limits rather than exact numbers.

For one assay, the system named is Pseudomonas aeruginosa. In words: microbe, parasite or virus in culture. The following applies: ATCC 27853, 18 h, ASSAY_TEST Inhibition of Bacterial Growth, detection method Absorption (OD600), MEDIA CAMHB, plate type 384well, NBS, CORNING #3640.
Description: Antibacterial activity against Pseudomonas aeruginosa ATCC 27853 (CO-ADD:GN_042); MIC in CAMBH media using NBS plates, by OD(600)
In the case of `Cc1ncc(C)c(N)n1`, the MIC was determined as 300 µM (≈ 36.9 µg/mL).
Still for that read-out and setting: in the case of `C[C@@]1(N)C[C@H]1c1ccccc1` it was above 300 µM.
On the same count and under the same terms, in the case of `N#Cc1cc(N2CCC[C@@H]2CO)nc2ccccc12` it was above 300 µM; in that of `CN1CCCN(c2nc3ccccc3cc2CO)CC1`, above 300 µM.
Same read-out and setting: as for `C[C@@H](N)C(=O)NCc1cc2cc(Cl)ccc2[nH]1`, the figure is above 300 µM; as for `CC(CN)N(C)C(=O)Cc1cccc2ccccc12` (configuration not stated), above 300 µM; as for `O=C(NCc1cccs1)c1cnsn1`, above 300 µM.
Compound `NCCNC(=O)c1ccc(-c2ccc(Cl)cc2)s1` gave an MIC of 300 µM (≈ 84.2 µg/mL).
Still for that read-out and setting: as for `CCOc1cc(Cl)ccc1CN`, the figure is above 300 µM.
On the same count and under the same terms, as for `N#Cc1ncn(CC(=O)c2ccc3c(c2)CCO3)n1`, the figure is above 300 µM.
With `CC(C)(N)CN1CCN(c2cccc(Cl)c2)CC1`, the MIC was above 300 µM.
Same read-out and setting: in the case of `COc1ccc(-c2ccnc(CO)c2)c(OC)c1` it was above 300 µM; in that of `CNC(=O)Cn1cc(-c2cccc3cnccc23)cn1`, above 300 µM; in that of `CN(C)C(=O)CCNc1ccnc2ccc(Cl)cc12`, above 300 µM.
The same measure, in the same setting: in the case of `OC1(CNCc2ccc(Br)c3cccnc23)CCOC1` (configuration not stated) it was above 300 µM.
Still for that read-out and setting: as for `CC(C)CNC(=O)CSc1n[nH]c(-c2ccccn2)n1`, the figure is above 300 µM.
Compound `NCc1cnn(-c2cccc(Cl)c2)c1` yielded an MIC above 300 µM.
On the same count and under the same terms, in the case of `CC(C)c1ccoc1C(=O)N(C)c1cc(C#N)ccn1` it was above 300 µM; in that of `Cc1cc(C)c(C#N)c(N2C[C@H](C3CC3)[C@@H](N)C2)n1`, above 300 µM; in that of `CCNCCOc1cccc(OCC)c1`, above 300 µM.
Still for that read-out and setting: in the case of `CNC(CO)c1cccc(Cl)c1Cl` (configuration not stated) it was above 300 µM.
Same read-out and setting: in the case of `Cc1ccc(C(=O)NCc2ccnc(N(C)C)c2)s1` it was above 300 µM; in that of `CCOc1ncc(C(=O)NCC(C)(O)C(C)C)cc1Cl` (configuration not stated), above 300 µM.
`CNC(=O)C1CCN(C(=O)Nc2ccc(C)c(Cl)c2)C1` (configuration not stated) had an MIC above 300 µM.
The same measure, in the same setting: in the case of `OCC1(O)CCCN(c2ccnc3ccc(Cl)cc23)C1` (configuration not stated) it was above 300 µM; in that of `NCC(=O)N1CCCC(CCc2ccc(F)c(F)c2)C1` (configuration not stated), above 300 µM.
Compound `CCCSc1ccc(NC(=O)NCCN)cc1` registered an MIC above 300 µM.
The compound `OCc1ccncc1NCc1coc2ccccc12` displayed an MIC above 300 µM.
Same read-out and setting: in the case of `COCC(O)CNc1c(C)c(C)nc2ccccc12` (configuration not stated) it was above 300 µM.
The same measure, in the same setting: as for `O=S1(=O)CCC(CNc2ccnc3ccc(Cl)cc23)C1` (configuration not stated), the figure is above 300 µM; as for `NCC(=O)N1CCCC(CCc2ccc(F)cc2)C1` (configuration not stated), above 300 µM.

The next assay has as its system Acinetobacter baumannii. In words: microbe, parasite or virus in culture. The following applies: ATCC 19606, 18 h, ASSAY_TEST Inhibition of Bacterial Growth, detection method Absorption (OD600), MEDIA CAMHB, plate type 384well, NBS, CORNING #3640.
Description: Antibacterial activity against Acinetobacter baumannii ATCC 19606 (CO-ADD:GN_034); MIC in CAMBH media using NBS plates, by OD600
In the case of `Cc1ncc(C)c(N)n1`, the MIC was above 300 µM.
On the same count and under the same terms, in the case of `C[C@@]1(N)C[C@H]1c1ccccc1` it was above 300 µM; in that of `N#Cc1cc(N2CCC[C@@H]2CO)nc2ccccc12`, above 300 µM; in that of `CN1CCCN(c2nc3ccccc3cc2CO)CC1`, above 300 µM.
On the same count and under the same terms, as for `C[C@@H](N)C(=O)NCc1cc2cc(Cl)ccc2[nH]1`, the figure is above 300 µM; as for `CC(CN)N(C)C(=O)Cc1cccc2ccccc12` (configuration not stated), above 300 µM.
Same read-out and setting: in the case of `O=C(NCc1cccs1)c1cnsn1` it was above 300 µM; in that of `NCCNC(=O)c1ccc(-c2ccc(Cl)cc2)s1`, above 300 µM; in that of `CCOc1cc(Cl)ccc1CN`, above 300 µM.
`N#Cc1ncn(CC(=O)c2ccc3c(c2)CCO3)n1` returned an MIC above 300 µM.
On the same count and under the same terms, in the case of `CC(C)(N)CN1CCN(c2cccc(Cl)c2)CC1` it was above 300 µM; in that of `COc1ccc(-c2ccnc(CO)c2)c(OC)c1`, above 300 µM.
As to `CNC(=O)Cn1cc(-c2cccc3cnccc23)cn1`, the MIC is above 300 µM.
Same read-out and setting: in the case of `CN(C)C(=O)CCNc1ccnc2ccc(Cl)cc12` it was above 300 µM; in that of `OC1(CNCc2ccc(Br)c3cccnc23)CCOC1` (configuration not stated), above 300 µM; in that of `CC(C)CNC(=O)CSc1n[nH]c(-c2ccccn2)n1`, above 300 µM.
The same measure, in the same setting: as for `NCc1cnn(-c2cccc(Cl)c2)c1`, the figure is above 300 µM; as for `CC(C)c1ccoc1C(=O)N(C)c1cc(C#N)ccn1`, above 300 µM; as for `Cc1cc(C)c(C#N)c(N2C[C@H](C3CC3)[C@@H](N)C2)n1`, above 300 µM.
`CCNCCOc1cccc(OCC)c1` returned an MIC above 300 µM.
Still for that read-out and setting: as for `CNC(CO)c1cccc(Cl)c1Cl` (configuration not stated), the figure is above 300 µM; as for `Cc1ccc(C(=O)NCc2ccnc(N(C)C)c2)s1`, above 300 µM; as for `CCOc1ncc(C(=O)NCC(C)(O)C(C)C)cc1Cl` (configuration not stated), above 300 µM.
The compound `CNC(=O)C1CCN(C(=O)Nc2ccc(C)c(Cl)c2)C1` (configuration not stated) gave an MIC above 300 µM.
Still for that read-out and setting: in the case of `OCC1(O)CCCN(c2ccnc3ccc(Cl)cc23)C1` (configuration not stated) it was above 300 µM; in that of `NCC(=O)N1CCCC(CCc2ccc(F)c(F)c2)C1` (configuration not stated), above 300 µM; in that of `CCCSc1ccc(NC(=O)NCCN)cc1`, above 300 µM.
Still for that read-out and setting: in the case of `OCc1ccncc1NCc1coc2ccccc12` it was above 300 µM.
Same read-out and setting: in the case of `COCC(O)CNc1c(C)c(C)nc2ccccc12` (configuration not stated) it was above 300 µM; in that of `O=S1(=O)CCC(CNc2ccnc3ccc(Cl)cc23)C1` (configuration not stated), above 300 µM; in that of `NCC(=O)N1CCCC(CCc2ccc(F)cc2)C1` (configuration not stated), above 300 µM.

The next assay concerns Pseudomonas aeruginosa. In words: Antibacterial activity against Pseudomonas aeruginosa PAO397 [PAO1 d(mexAB-oprM) d(mexCD-oprJ) d(mexEF-oprN) d(mexJKL) d(mexXY) d(opmH)] (CO-ADD:GN_211); MIC in CAMBH media using NBS plates, by OD(600). The format is functional. The following applies: ASSAY_TEST Inhibition of Bacterial Growth, detection method Absorption (OD600), MEDIA CAMHB, plate type 384well, CORNING #3640, time 18 hr.
For the compound `Cc1ncc(C)c(N)n1`, the MIC was above 300 µM.
Still for that read-out and setting: as for `C[C@@]1(N)C[C@H]1c1ccccc1`, the figure is 200 µM (≈ 29.4 µg/mL); as for `N#Cc1cc(N2CCC[C@@H]2CO)nc2ccccc12`, above 300 µM; as for `CN1CCCN(c2nc3ccccc3cc2CO)CC1`, above 300 µM.
Same read-out and setting: in the case of `C[C@@H](N)C(=O)NCc1cc2cc(Cl)ccc2[nH]1` it was 300 µM (≈ 75.5 µg/mL).
On the same count and under the same terms, as for `O=C(NCc1cccs1)c1cnsn1`, the figure is above 300 µM.
`NCCNC(=O)c1ccc(-c2ccc(Cl)cc2)s1` showed an MIC of 90 µM (≈ 25.3 µg/mL).
The same measure, in the same setting: as for `CCOc1cc(Cl)ccc1CN`, the figure is above 300 µM; as for `N#Cc1ncn(CC(=O)c2ccc3c(c2)CCO3)n1`, above 300 µM.
The same measure, in the same setting: as for `CC(C)(N)CN1CCN(c2cccc(Cl)c2)CC1`, the figure is above 300 µM; as for `COc1ccc(-c2ccnc(CO)c2)c(OC)c1`, above 300 µM.
The same measure, in the same setting: in the case of `CNC(=O)Cn1cc(-c2cccc3cnccc23)cn1` it was above 300 µM.
As for `CN(C)C(=O)CCNc1ccnc2ccc(Cl)cc12`, the MIC was above 300 µM.
The compound `OC1(CNCc2ccc(Br)c3cccnc23)CCOC1` (configuration not stated) registered an MIC above 300 µM.
On the same count and under the same terms, in the case of `CC(C)CNC(=O)CSc1n[nH]c(-c2ccccn2)n1` it was 60 µM (≈ 17.5 µg/mL); in that of `NCc1cnn(-c2cccc(Cl)c2)c1`, above 300 µM; in that of `CC(C)c1ccoc1C(=O)N(C)c1cc(C#N)ccn1`, above 300 µM.
Still for that read-out and setting: in the case of `Cc1cc(C)c(C#N)c(N2C[C@H](C3CC3)[C@@H](N)C2)n1` it was above 300 µM; in that of `CCNCCOc1cccc(OCC)c1`, above 300 µM.
The same measure, in the same setting: as for `CNC(CO)c1cccc(Cl)c1Cl` (configuration not stated), the figure is above 300 µM; as for `Cc1ccc(C(=O)NCc2ccnc(N(C)C)c2)s1`, above 300 µM; as for `CCOc1ncc(C(=O)NCC(C)(O)C(C)C)cc1Cl` (configuration not stated), above 300 µM.
`CNC(=O)C1CCN(C(=O)Nc2ccc(C)c(Cl)c2)C1` (configuration not stated) had an MIC of 90 µM (≈ 26.6 µg/mL).
Compound `OCC1(O)CCCN(c2ccnc3ccc(Cl)cc23)C1` (configuration not stated) came in with an MIC above 300 µM.
`NCC(=O)N1CCCC(CCc2ccc(F)c(F)c2)C1` (configuration not stated) had an MIC above 300 µM.
Same read-out and setting: in the case of `CCCSc1ccc(NC(=O)NCCN)cc1` it was above 300 µM; in that of `OCc1ccncc1NCc1coc2ccccc12`, above 300 µM.
For the compound `COCC(O)CNc1c(C)c(C)nc2ccccc12` (configuration not stated), the MIC is above 300 µM.
Same read-out and setting: in the case of `O=S1(=O)CCC(CNc2ccnc3ccc(Cl)cc23)C1` (configuration not stated) it was above 300 µM; in that of `NCC(=O)N1CCCC(CCc2ccc(F)cc2)C1` (configuration not stated), above 300 µM.
